Test results reported in US20230172894A1, “COMBINATION TREATMENT FOR FUMARATE-RELATED DISEASES” (IMCYSE SA, priority 2020, published 2023).

Test system: experimental auto-immune encephalomyelitis (EAE) development in mice
Assay: Example 1 (repeated experiment): plasma neurofilament light (NF-L) levels in EAE mice, Simoa NF-light assay
Format: in vivo, female C57BL/6 mice
Conditions: Example 1 regimen repeated; Day 28 plasma; vs negative control
Method: On Day 28, blood was collected from all mice into tubes containing K2EDTA and mixed gently. Blood was then centrifuged at ˜10000 g for 5 minutes. Plasma was transferred into Eppendorf tubes and stored at −80° C. until shipment to Quanterix™. Plasma Neurofilament light (NF-L) protein levels were quantified using Simoa® NF-light Advantage kit, a digital immunoassay for the quantitative determination of NF-L in serum, plasma and CSF. The used antibodies (Uman Diagnostics, Umea Sweden) also cross react with murine, bovine and macaque NF-L epitopes and as such, this assay can be used for research with these species. All samples were tested in duplicate at a dilution factor of 40×.
Neurofilament light (NF-L) is a 68 kDa cytoskeletal filament protein that is expressed in neurons, as one of the major components of the neuronal cytoskeleton that provide structural support for the axon. Neurofilaments can be released following axonal damage or neuronal degeneration.

HCPYCGWYRSPFSRVVHLYR [IMCY-0189]
plasma NF-L levels: reduced NF-L levels
